Key:
[1] = system: eIF2α phosphorylation and AAR-associated transcripts (Asns, Gpt2, eIF4Ebp1) in splenocytes; assay: AAR activation in splenocytes of HF-injected mice; format: in vivo; details: i.p. 2.5 mg HF; spleens harvested 6 hours post injection
Protocol: FIG. 18F, left panel, depicts western blot analysis of protein from cells of wild-type mice injected i.p. with vehicle (DMSO) or 2.5 mg HF. Spleens were harvested 6 hours post injection, red blood cells were removed by NH4Cl lysis buffer and immunoblotting for phosphorylated or total eIF2a was performed on whole cell extracts. FIG. 20F, right panel is a graph depicting levels of AAR-associated gene expression (Asns, Gpt2, eIF4Ebp1) analyzed by quantitative real-time PCR using cDNA from splenocytes of mice treated with DMSO or HF as above. Expression of AAR-associated transcripts were normalized to Hprt levels and data are presented as mean relative expression from duplicate samples±SD. All data represent 2-3 similar experiments.
HF-mediated protection from adjuvant-driven EAE was accompanied by a reduction in T cell-derived IL-17-expression, both in peripheral lymph nodes prior to disease onset and in CNS tissue during active disease (FIG. 18E), as well as an overall reduction in CD4^+ T cell infiltrates into the CNS (FIG. 19).

[2] = system: Differentiation of primary naïve T-cells into Th17 cells; assay: Inhibition of Th17 differentiation of primary naïve T-cells by halofuginone analogs; format: cell-based, murine; design: key: “+++” vs. “++” vs. “+” in general denotes ˜4-fold differences in potency; “+++” vs. “++” vs. “+” in general denotes ˜4-fold differences in potency; “+++” vs. “++” vs. “+” in general denotes ˜4-fold differences in potency; “−” denotes no activity at any dose tested, up to 1000× the effective dose of halofuginone; details: T-cell receptor stimulation+IL-6+TGFb
Protocol: Naïve T-cells were stimulated to differentiate in the presence or absence of 10 nM halofuginone, with 1 mM of the indicated amino acids added to the medium, and stained for Th17 differentiation on day 4. Naïve murine T cells were activated in the presence or absence of TGFβ plus IL-6 as indicated, expanded in for 4 days and restimulated with PMA and ionomycin for intracellular cytokine staining. […] Bars indicate percentage of cells differentiation as Th17 as indicated by IL17 expression.
The effect of different halofuginone and analogs thereof on differentiation of naïve T-cells was assayed as described in legend for FIG. 4 above. Differentiation of primary naïve T-cells into Th17 cells following T-cell receptor stimulation+IL-6+TGFb. “+++” vs. “++” vs. “+” in general denotes ˜4-fold differences in potency. “−” denotes no activity at any dose tested, up to 1000× the effective dose of halofuginone.

[3] = in vivo; cited from earlier work
[4] = system: Th17 differentiation of CD4+ CD25− T cells; details: read-out: 50% inhibition of IL-17 expressing cell (Th17) development; cited from earlier work
[5] = system: human CD4+ T cells (CD4+ CD45RO+); assay: IL-17 and IFNγ expression by human memory CD4+ T cells co-cultured with monocytes; format: cell-based; details: 100 nM HF; expanded for 6 days
Protocol: FIG. 5F is a set of FACS analyses of purified primary human memory T cells (CD4^+ CD45RO^+) activated in co-culture with CD14^+ monocytes and treated with DMSO, 100 nM HF or 100 nM MAZ1310. T cells were expanded for 6 days and intracellular cytokine expression was determined following restimulation with PMA plus ionomycin.
In light of reports that IL-17 expression may be differentially regulated in murine versus human T cells (Manel et al., Nat. Immunol. 9:641, 2008; Wilson et al., Nat. Immunol. 8:950, 2007; Acosta-Rodriguez et al., Nat. Immunol. 8:942, 2007), HF modulation of IL-17 expression by human CD4^+ T cells was investigated. […] Therefore, HF selectively limits IL-17 expression in both human and mouse T cells.
Primary murine T and B cells were purified by cell sorting. CD4^+ CD25^− T cells were positively selected using CD4 dynabeads and detachabeads (Dynal, Oslo, Norway) per manufacturers instructions followed by nTreg depletion using a CD25 microbead kit (Miltenyi biotech, Auburn, Calif.). Naïve (CD4^+ CD62Lhi CD44lo Foxp3gfp- or CD4^+ CD62Lhi CD44lo CD25^−) T cells were purified from Foxp3gfp or Foxp3ko mice, respectively, by FACS sorting. […] Resting human CD4^+ T cells were isolated from PBMC of healthy human donors using Dynal CD4 Positive Isolation Kit (Invitrogen, Carlsbad, Calif.) as previously described (Sundrud et al., Blood 106:3440, 2005). […]

## O=C(CC1NCCCC1O)Cn1cnc2cc(Br)c(Cl)cc2c1=O (stereo not drawn) [Compound 1, 7-bromo-6-chloro-3-[3-(3-hydroxy-2-piperidinyl)-2-oxopropyl]-4(3H)-quinazolinone]
[1]
  eIF2α phosphorylation and AAR-associated transcripts in splenocytes ex vivo: increased eIF2α phosphorylation and expression of AAR-associated transcripts
[2]
  Inhibition of Th17 differentiation: +++
[3]
  toxicity in humans: some toxicity in humans, such as nausea, vomiting, and fatigue, and possibly bleeding complications
[4]
  IC50: ~3 nM
[5]
  IFNγ expression by human T cells: essentially unaffected
  IL-17 expression by human T cells: greatly reduced both the percentage of human T cells expressing IL-17 and the amount of IL-17 produced
